Measured values reported in patent US20130071897A1, “METHOD FOR CONTROLLING UNDESIRABLE BYPRODUCTS FORMATION CAUSED BY CONTAMINATING ORGANISMS IN THE PRODUCTION OF ETHANOL FROM SYNGAS” (COSKATA, INC., priority 2011, published 2013).

Tests used:
acyl-CoA dehydrogenases = test: In vitro acyl-CoA dehydrogenase ferrocenium assay with C. tyrobutyricum cell-free extract; format: biochemical; conditions: 0.5 to 10 mM compound, rate of ferrocenium reduction at 300 nm
In short: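 Lysozyme-lysed cell-free extract of early-log C. tyrobutyricum was assayed anaerobically at laboratory temperature in 50 mM Tris-HCl pH 7.6 with 0.05 mM butyryl-CoA, FAD and 0.4 mM ferrocenium. Ferrocenium reduction was followed at 300 nm over 10–20 min, and the rate slope was plotted against compound concentration to give a dose-response slope.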

C. coskatii = test: Balch tube batch growth of homoacetogen C. coskatii on fructose, optical density; format: cell-based; conditions: added 21 h after inoculation
Description: Compounds A and D were again tested to determine their effect on another known homoacetogen. Each compound was tested in a series of batch experiments to determine the growth response of the homoacetogen to the presence of the compound at varying concentrations. These batch experiments were again all conducted by anoxically filling a Balch tube with 5 ml of a fermentation medium having the composition given in Tables 2 and 3. To expedite results, these batch experiments used fructose as the growth nutrient source for bacteria. Thus, the media included 5 g/L of fructose.
Each tube was inoculated with 0.5 ml of the same strain of C. coskatii bacteria seed culture inoculum. The tubes were maintained at a temperature of 37° C. Twenty one hours after the inoculation of the tube with the bacteria, the different crotonate derivatives from Table 1 were added to different tubes in the amounts indicated in Table 5. This was at a time of early to mid-log phase growth for the bacteria. Each fermentation of the bacteria in the media at the different concentration of crotonate derivatives were allowed to progress and were monitored to determine the bacteria growth at selected intervals of time varying from approximately 20 hours to 50 hours. Growth at the intervals was determined by measurement of the OD in the manner described in Example 1. The ability of a tube fermentation at a particular concentration of crotonate derivative to reach a predetermined optical density was recorded in Table 5. Table 5 indicates the presence of bacterial growth to an OD of approximately 1.6 or above with a “+”. All the samples of C. Coskatii reached a relatively high OD after a time of only 50 hours.

[1] = test system: Clostridium carboxydivorans; test: Balch tube batch growth of heteroacetogenic bacteria Clostridium carboxydivorans on fructose, optical density; format: cell-based; design: key to Optical density valuation of C. carboxidivorans: +: bacterial growth to an OD of approximately 1.8; +/−: one duplicate test tube showed a + indication and the other showed an optical density of less than 0.5; conditions: for Optical density valuation of C. carboxidivorans: added 20 h after inoculation; for Inhibition effect for reducing butyrogen growth: summary of Examples 1-5
Description: Similar experiments were conducted to determine the effect of the crotonate derivatives on heteroacetogenic bacteria. Selected crotonate derivatives were tested in a series of batch experiments to determine the growth response of butyrogens to the presence of the compounds at varying concentrations. The batch experiments were all conducted by anoxically filling a 20 ml Balch tube with 5 ml of a fermentation medium having the composition given in Tables 2 and 3. The media included 0.5 v/v final concentration of a fructose substrate. For each of the crotonate concentrations tested, duplicate test tubes were prepared.
Each tube was inoculated with 0.5 ml of the heteroacetogenic bacteria Clostridium carboxydivorans. The tubes were maintained at a temperature of 37° C. At a time 20 hours after the inoculation of the bacteria different crotonate derivatives from Table 1 were added to different tubes in the amounts indicated in Table 7. This was at a time of early to mid-log phase growth. Each fermentation of the bacteria in the media at the different concentration of crotonate derivatives were allowed to progress and were monitored to determine the bacteria growth at selected intervals of time varying from approximately 20 hours to 54 hours. Growth at the different intervals was measured by reading the optical density (OD) of the fermentation liquid. Optical density was measured as described in Example 1. The ability of a tube fermentation at a particular concentration of crotonate derivative to reach a predetermined optical density was recorded in Table 7. Table 7 indicates the presence of bacterial growth to an OD of approximately 1.8 with a “+”.
Compound A was tested again in set of experiments in all respects the same as that described for Example 4 except that compound A was added to Balch tubes in the amounts indicated in Table 7 at a time 5.5 hours after the inoculation of the bacteria. This was at a time in early log phase growth. In this case the Balch tube that contained no compound A reached an OD of 2 after 29 hours or less.

CCOC(=O)/C=C(\N)C(F)(F)F [B, ethyl-3-amino-4,4,4-trifluorocrotonate]
Dose-Response Slope (acyl-CoA dehydrogenases): 25

CCOC(=O)C=C(C(F)(F)F)C(F)(F)F [Compound A, ethyl 4,4,4-trifluoro-3-(trifluoromethyl)crotonate]
Dose-Response Slope (acyl-CoA dehydrogenases): about 8
Dose-Response Slope (acyl-CoA dehydrogenases; listed as Ethyl 4,4,4-trifluoro-3-(trifluoromethyl)crotonate): 8
Optical density valuation of C. coskatii (C. coskatii; 100 ppm(m)): + (bacterial growth to an OD of approximately 1.6 or above)
Optical density valuation of C. coskatii (C. coskatii; 500 ppm(m)): + (bacterial growth to an OD of approximately 1.6 or above)
Optical density valuation of C. coskatii (C. coskatii; 1000 ppm(m)): + (bacterial growth to an OD of approximately 1.6 or above)
Optical density valuation of C. carboxidivorans ([1]; 100 ppm(m)): + (bacterial growth to an OD of approximately 1.8)
OD of C. carboxidivorans tube fermentations ([1]; 500 and 1000 ppm added 5.5 hours after inoculation): ≤ 0.5
Optical density valuation of C. carboxidivorans ([1]; 500 ppm(m)): + (bacterial growth to an OD of approximately 1.8)
Optical density valuation of C. carboxidivorans ([1]; 1000 ppm(m)): + (bacterial growth to an OD of approximately 1.8)
Inhibition effect for reducing butyrogen growth [1]: showed inhibition effect

O=C(O)C=C(C(F)(F)F)C(F)(F)F [D, 4,4,4-trifluoro-3-(trifluoromethyl)crotonic acid]
Optical density valuation of C. coskatii (C. coskatii; 100 ppm(m)): + (bacterial growth to an OD of approximately 1.6 or above)
Optical density valuation of C. coskatii (C. coskatii; 500 ppm(m)): + (bacterial growth to an OD of approximately 1.6 or above)
Optical density valuation of C. coskatii (C. coskatii; 1000 ppm(m)): + (bacterial growth to an OD of approximately 1.6 or above)
Optical density valuation of C. carboxidivorans ([1]; 100 ppm(m)): + (bacterial growth to an OD of approximately 1.8)
Optical density valuation of C. carboxidivorans ([1]; 500 ppm(m)): + (bacterial growth to an OD of approximately 1.8)
Optical density valuation of C. carboxidivorans ([1]; 1000 ppm(m)): +/−
Inhibition effect for reducing butyrogen growth [1]: showed inhibition effect
